Patent US4731363A, “Thromboxane synthase inhibitors as insulin lowering agents and antiobesity agents” (priority 1986, dated 1988)

Columns and labels:
[1] = biological target: T1, thromboxane synthase (Guinea Pig Lung Microsomes) (Cavia porcellus, UniProt H0UT36); assay: biochemical; settings: enzyme source G = Guinea Pig Lung Microsomes; read-out: IC50
T1 construct: The lungs were removed, freed of trachea and the majority of blood removed by rinsing the lungs with buffer; from tissue; host or cells: lungs of male guinea pigs (microsomes, 110,000 g pellet)
Method: In said assay procedure, microsomes from guinea pig lung or human platelets are added to an endoperoxide intermediate in prostaglandin biosynthesis and the inhibitor in phosphate buffer solution followed by incubation, extraction and determination of the extent of thromboxane synthase inhibition by TLC with radiochromatographic profile analysis. […]
Isolation of Guinea Pig Lung Microsomes
Four male guinea pigs (.congruent.500 g each) were sacrificed by spinal dislocation. The lungs were removed, freed of trachea and the majority of blood removed by rinsing the lungs with buffer (0.1M phosphate pH 7.5) via the pulmonary artery. The lung tissue (18.3 g total wet wt.), was then minced, suspended in three volumes of buffer and homogenized using, initially, a Brinkmann polytron homogenizer and, finally, a glass-teflon tissue grinder. The homogenate was centrifuged at 12,000 g for 1 hr. and the resultant supernatant recentrifuged at 110,000 g for 1 hr. The 110,000 g pellet was taken up in 10 ml of buffer, divided into 5×2 ml aliquots and stored at -70° until use.
Low specific activity PGH2 (3.3 μCi/μmole) was obtained from Dr. W. E. M. Lands of the University of Michigan. PGH2 of higher specific activity (16.0 μCi/μmole) was purchased from Ran Biochemicals, Tel-Aviv, Israel.
The inhibitors tested were prepared as solutions (1-10 mg/ml) in 95% ethanol.
(§1) Assay for Thromboxane Synthase
(§2) To a 12×75 mm tube containing [1-^14 C] PGH2 (2 μg, 0.01 μCi or 0.05 μCi) and inhibitor (1 mM final assay concentration, in 10 μl of ethanol) in 225 μl of phosphate buffer (0.1M, pH 7.5), was added to an aliquot of guinea pig lung microsomes (25 μl, containing 400 μg protein) or an aliquot of human platelet microsomes (25 μl, containing .congruent.[…] protein). The solution was incubated in a 22° water bath for 2 min.; ether (1 ml) and citric acid (25 μMoles) were added, and the tube plunged into an acetone-dry ice bath. The ether extract was transferred to a 1.0 ml Reacti-vial, and the volume reduced under nitrogen to .congruent.50 μl.
(§3) The extract was applied to an I.T.L.C., type SG, glass fiber sheet (Gelman Instrument Co., Ann Arbor, Mich.) and developed in isooctane; methyl ethyl ketone: acetic acid (100:19:1 or 100:9:1) (19). The sheets were air dried and scanned using a Berthold LB 2760 Radiochromatographic Scanner. In certain cases, based on the radiochromatographic profile obtained, the sheets were cut, the appropriate regions placed in scintillation vials, 10 ml of LSC cocktail (Yorktown Research, S. Hackensack, NJ) added, and the relative cpm determined.

TXA2 Synthase = assay: TXA2 synthase IC50 as listed in Table I (enzyme source not stated); assay type: biochemical
Method: Determination of Inhibition of Thromboxane Synthase Activity Isolation of Human Platelet Microsomes
as §1, §2, §3

[2] = test system: isolated perfused rat pancreas; assay: Insulin secretion by isolated perfused rat pancreas; design: key: insulin AUC ratio: 1st glucose pulse / 2nd pulse with compound; settings: 100 μM; 16.7 mM glucose; control 1.0 ± 0.04 (n = 5)
Method: Determination of Insulin-Secretory Activity in the Isolated Perfused Rat Pancreas
Pancreata were obtained from young adult female Charles River rats weighing from 200-300 g. The animals were anaesthesized with sodium pentobarbitol (45 mg/kg), injected intraperitoneally, and the pancreas with its intact vasculature was removed and connected to an extracorporeal perfusion apparatus.
The basic perfusion solution contained: 133 mM NaCl, 4.4 mM KCl, 2.5 mM MgSO4, 2.4 mM Ca gluconate, 1.5 mM KH2 PO4, 29.4 mM NaHCO3, 4% dextran and 0.2% bovine serum albumin and glucose as discussed below. The perfusion flow rate was kept constant at 4 ml/min. After a 15-20 min equilibration period, the experimental protocol was begun. The pancreatic effluent was collected in either one or four-minute fractions.
The perfusion was run in the following sequence:
30 min 16.7 mM glucose-internal control
30 min 16.7 mM glucose and test compound
5 min 20 mM arginine-to check pancreas viability
Test compounds were dissolved in 90% ethanol to a concentration of 25 mM and then diluted in the perfusion buffer to the desired concentration. The perfusion effluent was collected in one or four min fractions-the samples were checked immediately, aliquoted for submission to radioimmunoassay and stored at -20° C. until the time of assay. The radioimmunoassay of insulin was carried out by a back-titration method using a pure rat insulin standard.
To assess the inhibitory activity of the test compounds, an inhibition index was calculated. The inhibition index is derived by comparing the insulin secretion response from treated versus nontreated pancreas preparations. For each preparation, a ratio of insulin secretion was calculated from the area under the insulin secretion curve of the first pulse of 16.7 mM glucose divided by the area under the curve of the second pulse of 16.7 mM glucose containing compound.

obese Zucker rats = assay: Antiobesity activity in vivo in obese Zucker rats; design: species or system rat; settings: 16 to 18 days; for Body Weight Gain: treated minus control
Method: Determination of Antiobesity Activity
Thromboxane synthase inhibitors were evaluated for antiobesity activity in vivo. Body weight, food intake and circulating insulin levels were monitored during periods of drug treatment. Analysis of carcass composition was performed at study termination.
Animals, Diets and Drug Administration
Lean and obese male and female Zucker rats bred at Hoffmann-La Roche Inc. (Nutley, NJ) were kept in wire-bottomed individual cages in light (12 hr dark and light cycles beginning at 6 p.m. and 6 a.m., respectively) and temperature-controlled (22°) rooms. All rats were fed chow diet (Ralston Purina Co., St. Louis, MO) ad libitum until one to three weeks before the start of drug treatment, at which time they were trained to consume a high glucose low fat (1% corn oil) diet which is herein referred to as G-70:1% CO. Following the one to three-week training period on G-70:1% CO, the average daily food intake was calculated, and the rats were weighed and divided into groups of four to seven rats each.
The control animals continued to eat the G-70:1% CO diet ad libitum, and the experimental groups were given G-70:1% CO diet containing drug (also fed ad libitum). The amount of drug added to the diet of each experimental group was based on calculations of food consumed per kg body weight using data collected at the end of the training period. […] The period of drug treatment ranged from 16 to 18 days as noted in the legends to the tables and graph. Food intake and body weight were recorded either daily or twice a week throughout the duration of the study. The amount of drug administered was calculated from the food intake per kg body weight for each experimental group. Body weight data are reported as the difference between the body weight gains of control and drug-treated animals. Food intake and insulin data are reported as percent of control.
^a Average duration of treatment was 16 to 18 days.
^b Body weight gain was computed by taking the difference between the
weight gain of treated and control rats.

T1 sequence (H0UT36 entry or part of it): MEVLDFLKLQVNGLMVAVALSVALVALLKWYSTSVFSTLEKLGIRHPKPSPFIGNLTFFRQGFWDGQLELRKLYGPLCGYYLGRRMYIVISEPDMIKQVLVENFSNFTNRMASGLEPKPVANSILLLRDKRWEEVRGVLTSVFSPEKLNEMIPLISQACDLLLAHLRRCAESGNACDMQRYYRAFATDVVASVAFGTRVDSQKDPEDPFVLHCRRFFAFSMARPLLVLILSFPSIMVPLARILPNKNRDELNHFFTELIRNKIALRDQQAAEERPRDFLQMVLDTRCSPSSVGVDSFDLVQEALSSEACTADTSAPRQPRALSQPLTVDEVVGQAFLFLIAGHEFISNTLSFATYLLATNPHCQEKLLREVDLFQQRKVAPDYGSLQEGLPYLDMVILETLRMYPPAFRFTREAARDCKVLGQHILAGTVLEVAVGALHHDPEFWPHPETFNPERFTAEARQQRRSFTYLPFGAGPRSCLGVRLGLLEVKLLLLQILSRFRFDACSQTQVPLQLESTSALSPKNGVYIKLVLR

Q: Which IC50 [1] does the source give for `CC(=O)c1ccc(-n2ccnc2)cc1` [1-[4-(1H--imidazol-1-yl)phenyl]ethanone, 1-[4-(1H-imidazol-1-yl)phenyl]ethanone] here?
A: 1 to 10 µM

Q: And the IC50 (TXA2 Synthase)?
A: 10 µM

Q: What about the “Insulin Secretion Inhibition Index” value [2] of the same compound?
A: 2

Q: What about the “Food Consumption” value (obese Zucker rats; 60 mg/kg in diet, P ≤ 0.05) of the same compound?
A: 82 ± 3 % of control

Q: And the Insulin (obese Zucker rats; 60 mg/kg in diet, not marked significant)?
A: 66 ± 16 % of control

Q: What about the “Body Weight Gain” value (obese Zucker rats; 60 mg/kg in diet, P ≤ 0.05) of the same compound?
A: -25 g

Q: What about the “Food Consumption” value (obese Zucker rats; 87 mg/kg in diet, P ≤ 0.05) of the same compound?
A: 84 ± 1 % of control

Q: What about the Insulin (obese Zucker rats; 87 mg/kg in diet, P ≤ 0.05) of the same compound?
A: 32 ± 5 % of control

Q: And the “Body Weight Gain” value (obese Zucker rats; 87 mg/kg in diet, P ≤ 0.05)?
A: -32 g

Q: And the “Food Consumption” value (obese Zucker rats; 113 mg/kg in diet, P ≤ 0.05)?
A: 74 ± 1 % of control

Q: What about the Insulin (obese Zucker rats; 113 mg/kg in diet, P ≤ 0.05) of the same compound?
A: 24 ± 1 % of control

Q: What about the “Body Weight Gain” value (obese Zucker rats; 113 mg/kg in diet, P ≤ 0.05) of the same compound?
A: -74 g
